Data reported in publication PMC5348404, “Systematic approach identifies RHOA as a potential biomarker therapeutic target for Asian gastric cancer” (Oncotarget, 2016).

These compounds were tested against T1, RHOA (Homo sapiens, UniProt P61586) (assay: surface plasmon resonance, immobilized RHOA (Reichert SR7500DC)).
T1 construct: commercial RHOA protein (Sigma-Aldrich SRP5127), immobilized on CMDH gold chip
T1 sequence (P61586 whole entry): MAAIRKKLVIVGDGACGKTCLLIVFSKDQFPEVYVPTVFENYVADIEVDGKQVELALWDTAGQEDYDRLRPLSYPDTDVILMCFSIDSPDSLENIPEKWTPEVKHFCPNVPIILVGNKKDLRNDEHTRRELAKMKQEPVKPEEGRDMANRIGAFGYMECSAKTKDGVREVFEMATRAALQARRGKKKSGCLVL
Type: binding
`CC(=O)N/N=C/c1ccc2c(c1)OCO2` [JK-125] showed a Kd of 8.7 ± 6 µM.
In the case of `O=C(N/N=C/c1ccc2c(c1)OCO2)c1ccncc1` [JK-123], the Kd is reported as 16.3 ± 0.4 µM.
`O=C(N/N=C/c1ccc2c(c1)OCO2)c1ccc(O)cc1` [JK-124] was tested, and the Kd was 44 ± 2 µM.
Compound `O=C(N/N=C/c1ccc2c(c1)OCO2)c1ccccc1` [JK-122] has a Kd of 6.9 ± 0.4 µM.
With `O=S(=O)(N/N=C/c1ccc2c(c1)OCO2)c1ccccc1` [JK-121] the Kd was 67 ± 3 µM.
